No end group written: not given here.
Tests used:
Format in all cases: biochemical
[1] = Determination of capacity to scavenge OH free radicals; conditions: positive control; FIG. 12
Experimental: (§1) [formula] 8.2 Determination of Capacity to Scavenge OH Free Radicals
Sample solutions in different concentrations are taken and evenly mixed with FeSO4 ([…]) and salicylic acid-anhydrous ethanol solution ([…]) in a volume ratio of 1:2:2, the reaction is started with 1 volume of H2O2 solution ([…]), reacting in a water bath at 37° C. for 1 h, and the absorbance is measured at 510 nm in ultraviolet-visible spectrum, and recorded as A2. Correspondingly, the H2O2 solution ([…]) is replaced with 1 volume of water, and the ratio of remaining reagents remains unchanged, reacting in a water bath at 37° C. for 1 h, and the absorbance is measured at 510 nm in ultraviolet-visible spectrum, and recorded as A20. The sample solution is replaced with distilled water, and the ratio of remaining reagents remains unchanged, reacting in a water bath at 37° C. for 1 h, and the absorbance is measured at 510 nm, and recorded as A02. Experiment of each group is repeated three times, and average values are obtained and standard deviations are calculated. The sodium selenite and the pea oligopeptide are used as raw material controls before chelation, and ascorbic acid is used as a positive control, the scavenging rate of the sample on OH free radicals is calculated according to the following formula:
(§2) [formula] 8.3 Determination of Reducing Capacity

[2] = Determination of reducing capacity (K3[Fe(CN)6]/FeCl3, absorbance at 700 nm); conditions: absorbance at 700 nm about 1.6; FIG. 14
Experimental: as §2
Sample solutions in different concentrations are taken and evenly mixed with phosphate buffer (0.2 mol/L, pH 6.6) and K3[Fe(CN)6] solution with a mass concentration of 1% in a volume ratio of 1:1:1, stored in a water bath at 50° C. for 10 min, and quickly cooled with cold water. 1 volume of trichloroacetic acid solution with a mass concentration of 10% is added, shaken well quickly and thoroughly under a dark condition, and then 1 volume of reaction mixture is taken out, and added with 1 volume of distilled water and 0.2 volume of FeCl3 solution with a mass concentration of 0.1%, and after shaking well quickly and thoroughly under a dark condition, standing for 10 min, the absorbance is measured at 700 nm, and recorded as A3. The sodium selenite and the pea oligopeptide are used as raw material controls before chelation, and ascorbic acid is used as an overall control, the absorbance A3 is directly used as a parameter of the reducing capacity of the sample. Experiment of each group is repeated three times, and average values are obtained and standard deviations are calculated.

[3] = Determination of capacity to scavenge DPPH free radicals; conditions: positive control; FIG. 10
Experimental: 8.1 Determination of Capacity to Scavenge DPPH Free Radicals
Samples in different concentrations are taken and mixed with DPPH-anhydrous ethanol solution ([…]) in a volume ratio of 1:1, and stored for 30 min under a dark condition, and the absorbance of the mixed solution is measured at 517 nm in ultraviolet-visible spectrum, and recorded as Ai. Correspondingly, sample solutions in different mass concentrations are evenly mixed with anhydrous ethanol solution in a volume ratio of 1:1, and stored for 30 min under a dark condition at room temperature, and the absorbance of the mixed solution is measured at 517 nm in ultraviolet-visible spectrum, and recorded as Aj. Distilled water is evenly mixed with DPPH-anhydrous ethanol solution ([…]) in a volume ratio of 1:1, and stored for 30 min under a dark condition at room temperature, and the absorbance is measured at 517 nm in ultraviolet-visible spectrum, and recorded as Ac. Experiment of each group is repeated three times, and average values are obtained and standard deviations are calculated. The sodium selenite and the pea oligopeptide are used as raw material controls before chelation, and ascorbic acid is used as a positive control, the scavenging rate of the sample on DPPH free radicals is calculated according to the following formula:
as §1

[4] = Identification of oxidation resistance by ABTS+ method (Trolox standard); parameters: Total antioxidant capacity: unit not given here; conditions: for Total antioxidant capacity: ABTS+ method, sample 5 mg/mL, Trolox standard curve, 734 nm; for Increased multiple, compared with selenium-chelating pea oligopeptide: ratio of total antioxidant capacity
Description: 9.2 Identification of Oxidation Resistance of Peptide Segment

Row | Compound | IC50 value of scavenging OH free radical [1] [µg/mL] | Required concentration for absorbance value about 1.6 (reducing capacity) [2] [µg/mL] | IC50 value of scavenging DPPH free radical [3] [µg/mL] | Total antioxidant capacity [4] | Increased multiple, compared with selenium-chelating pea oligopeptide [4]
1 | O=C1O[C@H]([C@@H](O)CO)C(O)=C1O [ascorbic acid] | 1024.87 ± 5.96 | 400 | 4.85 ± 0.02 |  | 
2 | HQMPKP [standard synthetic peptide segment identified in the selenium-chelating pea oligopeptide] |  |  |  | −9.53 | 
3 | PPKIYP [standard synthetic peptide segment identified in the selenium-chelating pea oligopeptide] |  |  |  | 211.12 | 3.90
4 | TGRGAP [standard synthetic peptide segment identified in the selenium-chelating pea oligopeptide] |  |  |  | 3.25 | 0.06
5 | Thr-Ser-Ser-Leu-Pro (TSSLP; listed as Pisum sativum) [standard synthetic peptide segment identified in the selenium-chelating pea oligopeptide] |  |  |  | 5.55 | 0.10

Source: patent US12252555B2 (CHINA NATIONAL RESEARCH INSTITUTE OF FOOD & FERMENTATION …, priority 2018, dated 2025)
